According to PubChem BioAssay (NCI):
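Each compound was tested at five concentrations against cells in 96-well plates for 48 hours. At the TGI there is no net growth.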

Key:
Experiment in all cases: NCI-60 cell line screen, 48 h
[1] = system: MDA-MB-435
[2] = system: HOP-62 NSCLC
[3] = system: HS 578T breast
[4] = system: OVCAR-3 ovarian
[5] = system: BT-549 breast
[6] = system: K-562 leukemia
[7] = system: SN12C renal
[8] = system: OVCAR-5 ovarian
[9] = system: T-47D breast
[10] = system: UACC-62 melanoma
[11] = system: NCI-H23 lung
[12] = system: NCI/ADR-RES ovarian
[13] = system: U251 CNS
[14] = system: SK-MEL-2 melanoma
[15] = system: DU-145 prostate
[16] = system: NCI-H226 lung
[17] = system: HCT-116 colon
[18] = system: OVCAR-4 ovarian
[19] = system: SK-OV-3 ovarian
[20] = system: MALME-3M melanoma
[21] = system: ACHN renal
[22] = system: HCT-15 colon
[23] = system: UACC-257 melanoma
[24] = system: SR leukemia
[25] = system: SW-620 colon
[26] = system: RPMI-8226 leukemia
[27] = system: SNB-19 CNS
[28] = system: SNB-75 CNS
[29] = system: M14 melanoma
[30] = system: NCI-H522 lung
[31] = system: SK-MEL-28 melanoma
[32] = system: COLO 205 colon
[33] = system: A549 NSCLC
[34] = system: TK-10 renal
[35] = system: MOLT-4 leukemia
[36] = system: MCF7 breast
[37] = system: SF-268 CNS
[38] = system: UO-31 renal
[39] = system: IGROV1 ovarian
[40] = system: EKVX NSCLC
[41] = system: HCC-2998 colon
[42] = system: MDA-MB-231 breast
[43] = system: RXF 393 renal
[44] = system: 786-0 renal
[45] = system: KM12 colon
[46] = system: PC-3 prostate
[47] = system: OVCAR-8 ovarian
[48] = system: HT29 colon
[49] = system: SF-295 CNS
[50] = system: SK-MEL-5 melanoma
[51] = system: CCRF-CEM leukemia
[52] = system: MDA-N
[53] = system: CAKI-1 renal
[54] = system: HOP-92 NSCLC
[55] = system: SF-539 CNS
[56] = system: LOX IMVI melanoma
[57] = system: NCI-H460 lung
[58] = system: HL-60(TB) leukemia

Measured: TGI

CCOC(=O)CNc1c(OCc2ccccc2)c(=O)c1=O
> 100 µM: [1] | [2] | [3] | [4] | [5] | [6] | [7] | [8] | [9] | [10] | [11] | [12] | [13] | [14] | [15] | [16] | [17] | [18] | [19] | [20] | [21] | [22] | [23] | [24] | [25] | [26] | [27] | [28] | [29] | [30] | [31] | [32] | [33] | [34] | [35] | [36] | [37] | [38] | [39] | [40] | [41] | [42] | [43] | [44] | [45] | [46] | [47] | [48] | [49] | [50] | [51] | [52]

Cn1c2c(c3ccccc31)CC1c3c(c4ccccc4n3C)CC21 (stereo not drawn)
> 100 µM: [1] | [53] | [2] | [3] | [4] | [5] | [6] | [7] | [8] | [9] | [10] | [11] | [12] | [13] | [15] | [16] | [18] | [19] | [20] | [21] | [22] | [23] | [24] | [25] | [26] | [54] | [27] | [28] | [55] | [29] | [30] | [31] | [32] | [33] | [34] | [35] | [36] | [37] | [38] | [39] | [40] | [41] | [42] | [43] | [44] | [56] | [57] | [45] | [46] | [47] | [58] | [48] | [49] | [50] | [51] | [52]
